Reference: US6599878B2, “Superoxygenating blood substitutes based on hemoglobin and dihydropyidine compositions” (priority 1992, dated 2003)
“And” between values parts separate entries of the source, which are not always exact repeats. Equal entries are not always repeated. Marks after values point to notes of the source that are not given here.

How the values were obtained:
nitric oxide synthase = assay: L-NAME during Ab-HD pilot study; settings: dog, in vivo
Method: Approximately 6 mg/kg L-NAME was administered i.v. bolus during Ab-HD.

[1] = BAEE reversal of L-NAME effects in Ab-HD dogs; assay type: in vivo; settings: BAEE after L-NAME in AB-HD dogs
From the text: With BAEE, the original hemodynamics of Ab-HD alone were expected to be evident, i.e. increased cardiac output.

cyclic GMP [2] = assay: BAEE during oxyHb-HD pilot study; assay type: in vivo, dog; settings: for cGMP: plasma
From the text: (§1) In another pilot study, we examined if infusion of a nitric oxide substrate (N-benzoyl-L-arginine ethyl ester, i.e. BAEE) would override the hypothesized NO scavenging by oxyHb and thereby mimic Ab-HD hemodynamics and cGMP production shown in Tables 8-11. While BAEE administration increased plasma cGMP levels and caused significant vasodilation as evidenced by the decreased mean arterial pressure, cardiac output was not increased (Table 12).

[3] = BAEE during oxyHb-HD pilot study; assay type: in vivo, dog; settings: n = 3
From the text: as §1

[4] = Blood gases, electrolytes, hemoglobin, colloid osmotic pressure and blood volume (Example I); assay type: in vivo, mongrel dogs; settings: for Plasma Hb: anesthetized dogs
Method: (§2) Blood pH, PCO2, PO2 and Na^+, K^+ and Ca^++ concentrations were measured with a Nova Stat Profile 1 analyzer (Waltham, Mass.). Plasma colloid osmotic pressure (COP) was determined before and after hemodilution with a Wescor 4400 Colloid Osmometer (Logan, Utah). […] Hematocrit was determined volumetrically. Hemoglobin (gm %), methemoglobin (%) and percent oxygen saturation were measured with an Instrumentation Laboratories 482 CO-Oximeter (Lexington, Mass.). Hemoglobin oxygen content was measured with the co-oximeter and added to the dissolved oxygen (0.003×PO2) to give total blood oxygen content (vol %).
Total blood volume was computed from plasma volume (indicator dilution of iodinated I^125-albumin, Mallinckrodt Medical, Inc., St. Louis, Mo.) and whole body hematocrit.
Following cannulation all animals were hydrated with 5 mg % albumin to increase filling pressure (LVEDP) above 5 mm Hg and to bring hematocrit to near 40 vol %. Twelve dogs underwent isovolemic exchange of blood for 10 gm % hemoglobin to hematocrit 50% of baseline.
(§3) Once MAP stabilized (≈5-10 min), hemodynamic measurements, blood gases and other samples were obtained.

cyclic GMP [5] = assay: Regional interstitial cGMP by microdialysis; assay type: in vivo, dog; settings: during hemodilution alone, n = 4
From the text: An in vivo method that is based on direct microdialysis of the organ tissue was used to examine the regional interstitial production of cGMP. The microdialysis technique uses a small dialysis fiber (250 μm diameter) that is inserted into the tissue and perfused to sample extracellular metabolites.

[6] = In vivo test of hemoglobin product for common adverse effects during hemodilution; settings: anesthetized dog, hemodilution to hematocrit 50% of baseline
Method: The hemoglobin product was also tested in vivo on dogs for common adverse effects of therapeutic products which are administered intravascularly. The hemodilution protocol used and the physiologic tests performed are standard in the art and were similar to that described in Rabiner et al., J. Exp. Med., 86, 455-463 (1967); Sunder-Plassmann et al., supra; and Crystal et al., Anesth. Analg., 67, 211-218 (1988) Briefly, the hemoglobin product was infused into a venous access of an anesthetized dog with simultaneous withdrawal of arterial blood on a one-to-one basis at about 25 ml/minute until hematocrit was 50% of baseline (about 20 vol %). Tests for pyrogenic effects, hypotensive effects, arrhythmia, inotropic effects, bradycardia, tachycardia, hypovolemia, dysoria, and coagulopathy were all negative.

[7] = Systemic hemodynamics in anesthetized hemodiluted dogs (Example I); assay type: in vivo, mongrel dogs
Method: Twenty-four conditioned, heartworm-free male mongrel dogs (20 to 30 kg) were anesthetized with sodium pentobarbital (30 mg/kg i.v.) followed by an i.v. maintenance dose of 4 mg/kg/hour. After intubation of the trachea with a cuffed endotracheal tube, the dog was mechanically ventilated (Siemens 900D Servoventilator) with 100% oxygen, tidal volumes of 10 to 12 ml/kg and respiration at a rate to achieve normocarbia. […] Sodium bicarbonate was not administered. The body temperature of the dog was maintained at 39 C. with water-circulated heating pads.
The dog was placed supine and a polyethylene catheter (PE 200) was inserted into the thoracic aorta via the left femoral artery for measurement of blood pressure. Two small-bore (PE 90) heparin-filled catheters of different lengths were placed in the abdominal aorta via the right femoral artery to collect reference blood samples containing radioactive microspheres for measurement of regional blood flow. Wide-bore (PE 240) catheters were placed in the right femoral vein and in the right carotid artery, for isovolemic exchange transfusion and for the administration of intravenous fluids and collection of arterial blood samples. A 5 french thermodilution catheter was advanced into the pulmonary artery via the right external jugular vein for measurement of cardiac output and right atrial pressure. A Foley catheter was inserted into the bladder for urine collection.
Under fluoroscopy, a 5 french volume-conductance catheter (Mansfield Webster) was inserted via the left carotid artery across the aortic valve to the apex of the left ventricle to measure instantaneous volume.
The animal was then placed on its right side and paralyzed with doxacurium (0.05 mg/kg) to perform a left thoracotomy in the fourth intercostal space. The exposed lung was retracted with gauze. Five cm H2O positive end-expiratory pressure was instituted to prevent atelectasis. A small incision was made in the pericardium near the left atrial appendage. The appendage was protracted and a PE 90 catheter, for microsphere injection, inserted into the ventricle via pressure verification and then pulled back into the atrium. A 3 french micromanometer-tipped pressure catheter (Millar) was then inserted via the appendage into the left ventricle for pressure recording. Both catheters were secured with a ligature around the appendage and distally taped to the animal. The exposed thoracic surface was covered with plastic film to prevent evaporation.
Continuous measurements of heart rate (HR), pulsatile aortic pressure, mean aortic pressure (MAP), left ventricular peak pressure (LVPP), rate-of-change of LVPP (dP/dt), LV end diastolic pressure (LVEDP), LV volume, and right atrial pressure (RAP) were recorded on an analog thermal array recorder (Gould Model TA4000) and stored on a computerized data acquisition system (Halcom, Inc.) Cardiac output (CO) was measured in triplicate using a Spectramed Hemoprol computer. Systemic vascular resistance (SVR) was calculated from (MAP−RAP)÷CO. Systemic vascular hindrance (SVH) was calculated from SVR÷η, where η is the apparent viscosity of blood in centipoise (cp). At high flow rates (shear rates≈200 s^−1) assumed in the aorta, η is 4.0 cp for hematocrit (Hct) of 40 vol % and 2.1 cp for Hct of 20 vol %. Stroke volume was derived from CO÷HR. LV stroke work (LVSW) was calculated from (systolic AoP−LVEDP)×SV×0.0136.

[8] = Properties of the hemoglobin product and colloid solutions; assay type: physicochemical
Method: as §2

cyclic GMP [9] = assay: Plasma cyclic GMP and arterial pressure before and after hemodilution and SNP (Example II); assay type: in vivo, dog; settings: hemodilution alone, n = 5, mean ± sem
[10] = Regional blood flows by radioactive microspheres (Example I); assay type: in vivo, mongrel dogs; settings: dogs, hematocrit 50% of control
Method: Briefly, prior to injection, microspheres labeled with Sc^46, Sr^85, Sn^113 or Ce^141 were vortexed and sonicated. Approximately 30 microcuries (1×10^6 microspheres) were injected into the left atrium of a dog. Beginning with each microsphere injection, duplicate reference blood samples were collected at a constant rate (6 ml min^−1) for 3 minutes from the femoral PE 90 catheters. Radioactivity of the duplicate samples differed by less than 10%, indicating adequate mixing of the microspheres in the left ventricular output. To maintain isovolemic conditions during reference sampling, a 5% albumin solution was infused simultaneously.
After the final injection of microspheres, the heart was stopped by intravenous injection of potassium chloride. Skin and bone (rib) were sampled from a shaved area distal to the thoracotomy. Skeletal muscle samples were taken from the hindlimb, back, forelimb and head. The GI tract was excised from the esophageal sphincter to the anus. All mesentery and omentum were trimmed. The stomach was separated from the tract. These and all other organs were weighed. Multiple samples were taken from each organ and transferred to a tared counting tube.
The tissue and reference samples were weighed and analyzed for radioactivity with a gamma scintillation counter equipped with a multichannel analyzer (Packard Instrument, Downers Grove, Ill.). Isotope separation was accomplished by standard techniques of gamma spectroscopy. Values for organ blood flows (BForgan) in ml min^−1 were calculated from the equation BForgan=ABF×(MC÷AC)×organ weight (g), where ABF is the rate of arterial reference sampling (ml/minute), MC is the microsphere radioactivity (counts min^−1 g^−1) in the tissue samples, and AC is the total microsphere radioactivity (counts/minute) in the arterial reference samples. The fractional distribution of cardiac output to each organ was computed from BForgan÷ΣBForgan, where ΣBForgan is the sum of all organ flows. Skeletal muscle, skin and bone weights were calculated as 40%, 9% and 8% of body weight, respectively.

[11] = Whole body oxygenation (Example I); assay type: in vivo, mongrel dogs; settings: for CaO2: arterial oxygen content
Method: as §2
Whole body oxygen extraction ratio (O2 extr, %) was calculated from arteria-mixed venous oxygen content difference C(a−v)O2 divided by the arterial oxygen content (CaO2). Whole body oxygen consumption (WBVO2) in ml/minute was determined using the Fick equation, WBVO2=CO×C(a−v)O2 Oxygen delivery (DO2) in ml/minute was calculated from CaO2×CO.
Upon arrival in the laboratory, typically all dogs had hematocrits of 45 vol % or greater and filling pressures (LVEDP) of 5 mm Hg or less. Following cannulation all animals were hydrated with 5 mg % albumin to increase filling pressure (LVEDP) above 5 mm Hg and to bring hematocrit to near 40 vol %. Twelve dogs underwent isovolemic exchange of blood for 10 gm % hemoglobin to hematocrit 50% of baseline. […] The colloid pressure of 10 gm % hemoglobin and 8 gm % albumin (both about 40 Torr) is about twice that of dog plasma and after in vivo dilution would be expected to sustain plasma volumes at baseline values or greater.
as §3

[12] = BAEE 400 μg/kg/min during oxyHb-HD, n = 3
[13] = anesthetized dogs, hemodilution to hematocrit 50% of baseline

COC(=O)[C@@H](N)CCCNC(=N)N[N+](=O)[O-] [L-NAME, L-nitro arginine methyl ester]
CO (nitric oxide synthase): 2413 ± 1721+ ml/min | MAP (nitric oxide synthase): 152 ± 8*+ mm Hg | cGMP (nitric oxide synthase): 17.38 ± 0.98*+ μg/ml

CCOC(=O)[C@H](CCCNC(=N)N)NC(=O)c1ccccc1 [BAEE, N-benzoyl-L-arginine ethyl ester, reference compound]
reversal of cardiac output to the high levels of Ab-HD alone [1]: not reversed | MAP (cyclic GMP [2]; [12]): 108 ± 8*+ mm Hg | cGMP (cyclic GMP [2]; [12]): 24.44 ± 1.05*+ μg/ml | CO ([3]; BAEE 400 μg/kg/min during oxyHb-HD): 2376 ± 233 mL/min

HbHD: Purified canine hemoglobin (10 gm %) used for isovolemic hemodilution
Plasma Hb [4]: 4.6 g/100 ml | Plasma Hb ([4]; listed as hemoglobin): 4.6 g/100 ml | plasma hemoglobin as share of total whole blood hemoglobin concentration ([4]; dog, in vivo): approximately 40% | hemoglobin excreted in urine, share of the approximately 100 grams infused ([4]; hemoglobinuria): less than 1% | Cyclic GMP levels in regional interstitial microdialysate, MU (cyclic GMP [5]; MU): 17.98* μg/ml | Cyclic GMP levels in regional interstitial microdialysate, BO (cyclic GMP [5]; bone): 18.64* μg/ml | Cyclic GMP levels in regional interstitial microdialysate, BR (cyclic GMP [5]; brain): 19.94* μg/ml | Cyclic GMP levels in regional interstitial microdialysate, GI (cyclic GMP [5]; gastrointestinal tract): 12.68* μg/ml | Cyclic GMP levels in regional interstitial microdialysate, HE (cyclic GMP [5]; heart): 14.44* μg/ml | Cyclic GMP levels in regional interstitial microdialysate, LI (cyclic GMP [5]; liver): 20.34* μg/ml | Cyclic GMP levels in regional interstitial microdialysate, LU (cyclic GMP [5]; lung): 18.74* μg/ml | Cyclic GMP levels in regional interstitial microdialysate, SP (cyclic GMP [5]; spleen): 16.40* μg/ml | Tests for pyrogenic effects, hypotensive effects, arrhythmia, inotropic effects, bradycardia, tachycardia, hypovolemia, dysoria, and coagulopathy [6]: negative | LV Elastance [7, 13]: 4.91 mm Hg ml | LV dP/dtmax [7, 13]: 1713 mm Hg/sec | LVPP [7, 13]: 154 mm Hg | LVSW [7, 13]: 29.2 g m/beat | MAP [7, 13]: 136 mm Hg | heart rate [7, 13]: 153 beats/min | mean aortic, right atrial and LV end-diastolic (systemic) pressures vs control ([7]; dog, in vivo): not changed | systemic vascular resistance vs control ([7]; dog, in vivo): not changed | effect on cardiac output and stroke volume ([7]; vs control): did not change | increase in systemic vascular hindrance ([7]; vs control): ~100% | % carboxyhemoglobin [8]: <0.5% | % methemoglobin [8]: <1% | Ca^+ [8]: 1.2 mmol/L | Colloid osmotic pressure [8]: 40 mm Hg | Davenport diagram [8]: Normal | Haldane effect [8]: Normal | Hill plot [8]: Normal | K [8]: 3.4 mmol/L | Na [8]: 150 mmol/L | Osmolality [8]: 310 mOsmol/kg | Oxygen capacity [8]: 13.5 vol % | Oxygen content [8]: 13.5 vol % | PCO2 [8]: 15 mm Hg | PO2 [8]: 200 mm Hg | Total Hb concentration [8]: 10 gm % | Viscosity [8]: ≈2.0 cp | pH [8]: 6.9 | COP of colloid solution ([8]; 8% albumin, 10% hemoglobin, Wescor 4400 Colloid Osmometer): 40.8±1.0 mm Hg | Bohr coefficient ([8]; pH 7.2-7.4): 0.54 (pH 7.2-7.4) | P50 ([8]; pH 7.4): 24 mm Hg (pH 7.4) | MAP (cyclic GMP [9]): 142 ± 6 mm Hg | Plasma cGMP (cyclic GMP [9]; listed as oxyHb-HD): 17.22 ± 1.02*+ μg/ml and 17.22 ± 1.02 μg/ml | Cyanide (blood, n = 6): 0.13 ± 0.03 mg/L | Lactate (dog, in vivo): 2.2 ± 0.3 meq/L | Organ blood flow, change from control: Bone [10]: No | Organ blood flow, change from control: Brain [10]: Yes (+40%) | Organ blood flow, change from control: Gastrointestinal [10]: No | Organ blood flow, change from control: Liver [10]: No | Organ blood flow, change from control: Lung [10]: Yes (−53%) | Organ blood flow, change from control: Myocardium [10]: Yes (+80%) | Organ blood flow, change from control: Pancreas [10]: No | Organ blood flow, change from control: Renal [10]: No | Organ blood flow, change from control: Skeletal muscle [10]: No | Organ blood flow, change from control: Skin [10]: No | Organ blood flow, change from control: Spleen [10]: Yes (−39%) | Organ blood flow, change from control: Total (= Cardiac output) [10]: No | MAP (cyclic GMP [2]; oxyHb-HD alone, n = 3): 146 ± 5 mm Hg | cGMP (cyclic GMP [2]; oxyHb-HD alone, n = 3, mean ± sem): 17.80 ± 0.95 µg/mL | CO ([3]; oxyHb-HD alone): 2880 ± 245 mL/min | C(a-v)O2 ([11]; anesthetized dogs): 6.1 ml/100 ml | CvO2 ([11]; anesthetized dogs): 8.8 ml/100 ml | CaO2 ([11]; anesthetized dogs): 14.9 ml/100 ml | CaO2 ([11]; anesthetized dogs, listed as hemoglobin): 14.9±0.4 ml/100 ml | DO2 ([11]; oxygen delivery = CaO2 x CO): 302 mL/min | decrease in oxygen delivery ([11]; vs control): 30% | reduction in arterial oxygen content ([11]; vs control): 24% | WBVO2 ([11]; whole body oxygen consumption): 125 mL/min | O2 extr ([11]; whole body oxygen extraction ratio): 45%
